Measured values reported in patent publication US7906655B2, “Hepatitis C virus inhibitors” (Bristol-Myers Squibb Company, priority 2008, dated 2011).

System: HCV 1b genotype
Assay: HCV Replicon assay (HCV-neo replicon cells, wild-type)
Format: cell-based
Settings: HCV 1b genotype replicon; class symbols
In short: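 Inhibition was measured in HCV-neo (genotype 1b) replicon cells. Some assay versions used luciferase reporters.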

Row | Structure (SMILES) | EC50
1 | COC(=O)N[C@@H](C(=O)N1[C@@H]2C[C@@H]2C[C@H]1c1nc2cc(-c3ccc(Oc4cccc5[nH]c([C@@H]6C[C@H]7C[C@H]7N6C(=O)[C@H](NC(=O)OC)C(C)C)nc45)cc3)ccc2[nH]1)C(C)C [Example V7, methyl ((1R)-1-(((1R,3S,5R)-3-(4-(4-(2-((1R,3S,5R)-2-((2R)-2-(methoxycarbonyl)amino)-3-methylbutanoyl)-2-azabicyclo[3.1.0]hex-3-yl)-1H-benzimidazol-5-yl)phenoxy)-1H-benzimidazol-2-yl)-2-azabicyclo[3.1.0]hex-2-yl)carbonyl)-2-methylpropyl) carbamate] | 4.57 to 99 nM
2 | C[C@H](NC(=O)[C@H](O)c1ccccc1)c1nc2cc(C#Cc3ccc4[nH]c([C@H](C)NC(=O)[C@H](O)c5ccccc5)nc4c3)ccc2[nH]1 [Example M27] | < 4.57 nM
3 | O=C([C@@H]1CCCO1)N1CCC[C@H]1c1nc2cc(C#Cc3ccc4[nH]c([C@@H]5CCCN5C(=O)[C@@H]5CCCO5)nc4c3)ccc2[nH]1 [Example M26.5] | 100 to 999 nM
4 | O=C(c1cccnc1)N1CCC[C@H]1c1nc2cc(C#Cc3ccc4[nH]c([C@@H]5CCCN5C(=O)c5cccnc5)nc4c3)ccc2[nH]1 [Example M26.1, N,N′-(1,2-ethynediyl)bis(2-((2S)-1-(3-pyridinylcarbonyl)-2-pyrrolidinyl)-1H-benzimidazole)] | 100 to 999 nM
5 | COC(=O)N[C@@H](C)C(=O)N1[C@@H]2C[C@@H]2C[C@H]1c1nc2cc(Oc3cccc(-c4ccc5[nH]c([C@@H]6C[C@H]7C[C@H]7N6C(=O)[C@H](C)NC(=O)OC)nc5c4)c3)ccc2[nH]1 [Example V2, methyl ((1S)-2-((1R,3S,5R)-3-(5-(3-((2-((1R,3S,5R)-2-(N-(methoxycarbonyl)-L-alanyl)-2-azabicyclo[3.1.0]hex-3-yl)-1H-benzimidazol-5-yl)oxy)phenyl)-1H-benzimidazol-2-yl)-2-azabicyclo[3.1.0]hex-2-yl)-1-methyl-2-oxoethyl) carbamate] | < 4.57 nM
6 | O=C1CC[C@@H](c2nc3cc(CCc4ccc5nc([C@@H]6CCC(=O)N6C(=O)OCc6ccccc6)[nH]c5c4)ccc3[nH]2)N1C(=O)OCc1ccccc1 [OL3, benzyl (2S)-2-(5-(2-(2-((2S)-1-(((benzyloxy)carbonyl)-5-oxo-2-pyrrolidinyl)-1H-benzimidazol-6-yl)ethyl)-1H-benzimidazol-2-yl)-5-oxo-1-pyrrolidinecarboxylate] | 100 to 999 nM

Same assay, conditions: Hepatitis C virus, HCV 1b genotype replicon; class symbols

Row | Structure (SMILES) | EC50
7 | O=C(Cc1ccccc1)N1CCC[C@H]1c1nc2cc(-c3ccc4nc([C@@H]5CCCN5C(=O)Cc5ccccc5)[nH]c4c3)ccc2[nH]1 [Example M39, 2,2′-bis((2S)-1-(phenylacetyl)-2-pyrrolidinyl)-1H,1′H-5,5′-bibenzimidazole] | 100 to 999 nM
8 | Cn1cccc1C(=O)N1CCC[C@H]1c1nc2ccc(C#Cc3ccc4[nH]c([C@@H]5CCCN5C(=O)[C@H]5CCCO5)nc4c3)cc2[nH]1 [Example M54.6, 5-((2-((2S)-1-((1-methyl-1H-pyrrol-2-yl)carbonyl)-2-pyrrolidinyl)-1H-benzimidazol-6-yl)ethynyl)-2-((2S)-1-((2R)-tetrahydro-2-furanylcarbonyl)-2-pyrrolidinyl)-1H-benzimidazole] | 4.57 to 99 nM
9 | CN(C)C(C(=O)N1CCC[C@H]1c1nc2ccc(-c3ccc4[nH]c([C@@H]5CCCN5C(=O)[C@@H](c5ccccc5)N(C)C)nc4c3)cc2[nH]1)c1ccccc1 (stereo partly drawn) [Example F1, (1R,1′R)-2,2′-(1H,1′H-5,5′-bibenzimidazole-2,2′-diyldi(2S)-2,1-pyrrolidinediyl)bis(N,N-dimethyl-2-oxo-1-phenylethanamine)] | < 4.57 nM
10 | CCO[C@@H]1C[C@@H](c2nc3cc(CCc4ccc5nc([C@@H]6C[C@@H](OCC)CN6C(=O)OCc6ccccc6)[nH]c5c4)ccc3[nH]2)N(C(=O)OCc2ccccc2)C1 [Example F5, benzyl (2S,4R)-2-(5-(2-(2-((2S,4R)-1-((benzyloxy)carbonyl)-4-ethoxy-2-pyrrolidinyl)-1H-benzimidazol-6-yl)ethyl)-1H-benzimidazol-2-yl)-4-ethoxy-1-pyrrolidinecarboxylate] | 4.57 to 99 nM
11 | O=C(c1ccccc1)N1CCC[C@H]1c1nc2ccc(C#Cc3ccc4[nH]c([C@@H]5CCCN5C(=O)[C@H]5CCCO5)nc4c3)cc2[nH]1 [Example M54.1, 5-((2-((2S)-1-benzoyl-2-pyrrolidinyl)-1H-benzimidazol-6-yl)ethynyl)-2-((2S)-1-((2R)-tetrahydro-2-furanylcarbonyl)-2-pyrrolidinyl)-1H-benzimidazole] | 4.57 to 99 nM
12 | CC(=O)N[C@@H](C(=O)N1CCC[C@H]1c1nc2cc(-c3ccc4nc([C@@H]5CCCN5C(=O)[C@H](NC(C)=O)c5ccccc5)[nH]c4c3)ccc2[nH]1)c1ccccc1 [Example F7, N,N′-(1H,1′H-5,5′-bibenzimidazole-2,2′-diylbis((2S)-2,1-pyrrolidinediyl((1R)-2-oxo-1-phenyl-2,1-ethanediyl)))diacetamide] | 4.57 to 99 nM
13 | CC(=O)N[C@@H](C(=O)N[C@@H](C)c1nc2cc(C#Cc3ccc4nc([C@H](C)NC(=O)[C@H](NC(C)=O)c5ccccc5)[nH]c4c3)ccc2[nH]1)c1ccccc1 [Example M30, (2R)-2-acetamido-N-((1S)-1-(5-((2-((1S)-1-(((2R)-2-acetamido-2-phenylacetyl)amino)ethyl)-1H-benzimidazol-6-yl)ethynyl)-1H-benzimidazol-2-yl)ethyl)-2-phenylacetamide] | < 4.57 nM
14 | CN(C)[C@@H](C(=O)N1CCC[C@H]1c1nc2ccc(C(=O)c3ccc4nc([C@@H]5CCCN5C(=O)[C@@H](c5ccccc5)N(C)C)[nH]c4c3)cc2[nH]1)c1ccccc1 [Example J32, bis(2-((2S)-1-((2R)-2-(dimethylamino)-2-phenylacetyl)-2-pyrrolidinyl)-1H-benzimidazol-5-yl)methanone] | 4.57 to 99 nM
15 | O=C(C1CCC1)N1CCC[C@H]1c1nc2cc(CCc3ccc4nc([C@@H]5CCCN5C(=O)C5CCC5)[nH]c4c3)ccc2[nH]1 [Example M45, 2-((2S)-1-(cyclobutylcarbonyl)-2-pyrrolidinyl)-5-(2-(2-((2S)-1-(cyclobutylcarbonyl)-2-pyrrolidinyl)-1H-benzimidazol-6-yl)ethyl)-1H-benzimidazole] | 100 to 999 nM
16 | O=C(OCc1ccccc1)N1CCC[C@H]1c1nc2cc(C#Cc3ccc4[nH]c([C@@H]5CCCN5C(=O)[C@H]5CCCO5)nc4c3)ccc2[nH]1 [Example M54, benzyl (2S)-2-(5-((2-((2S)-1-((2R)-tetrahydro-2-furanylcarbonyl)-2-pyrrolidinyl)-1H-benzimidazol-5-yl)ethynyl)-1H-benzimidazol-2-yl)-1-pyrrolidine-carboxylate] | < 4.57 nM
17 | CN(C)[C@@H](C(=O)N1CCC[C@H]1c1nc2cc(C#Cc3ccc4nc([C@@H]5CCCN5C(=O)[C@@H](c5ccccc5)N(C)C)[nH]c4c3)ccc2[nH]1)c1ccccc1 [Example M19, (1R)-2-((2S)-2-(5-((2-((2S)-1-((2R)-2-(dimethylamino)-2-phenylacetyl)-2-pyrrolidinyl)-1H-benzimidazol-6-yl)ethynyl)-1H-benzimidazol-2-yl)-1-pyrrolidinyl)-N,N-dimethyl-2-oxo-1-phenylethanamine] | < 4.57 nM
18 | CC(C)(C)O[C@@H]1C[C@@H](c2nc3cc(C#Cc4ccc5nc([C@@H]6C[C@@H](OC(C)(C)C)CN6C(=O)OCc6ccccc6)[nH]c5c4)ccc3[nH]2)N(C(=O)OCc2ccccc2)C1 [Example F10, benzyl (2S,4R)-2-(5-((2-((2S,4R)-1-((benzyloxy)carbonyl)-4-tert-butoxy-2-pyrrolidinyl)-1H-benzimidazol-6-yl)ethynyl)-1H-benzimidazol-2-yl)-4-tert-butoxy-1-pyrrolidinecarboxylate] | 4.57 to 99 nM
19 | CC(=O)N1CCC[C@H]1c1nc2ccc(C#Cc3ccc4[nH]c([C@@H]5CCCN5C(=O)c5cccnc5)nc4c3)cc2[nH]1 [Example M54.22, 5-((2-((2S)-1-acetyl-2-pyrrolidinyl)-1H-benzimidazol-6-yl)ethynyl)-2-((2S)-1-(3-pyridinylcarbonyl)-2-pyrrolidinyl)-1H-benzimidazole] | 100 to 999 nM
20 | Cn1cccc1C(=O)N1CCC[C@H]1c1nc2cc(C#Cc3ccc4[nH]c([C@@H]5CCCN5C(=O)c5cccn5C)nc4c3)ccc2[nH]1 [Example M12, 5,5′-(1,2-ethynediyl)bis(2-((2S)-1-((1-methyl-1H-pyrrol-2-yl)carbonyl)-2-pyrrolidinyl)-1H-benzimidazole)] | 4.57 to 99 nM

Same assay, conditions: Hepatitis C virus, HCV 1b genotype replicon; numeric values

Row | Structure (SMILES) | EC50
21 | COC(=O)N[C@@H](C(=O)N[C@@H](C)c1nc2cc(C#Cc3ccc4[nH]c([C@H](C)NC(=O)[C@H](NC(=O)OC)c5ccccc5)nc4c3)ccc2[nH]1)c1ccccc1 [Example M31, dimethyl (1,2-ethynediylbis(1H-benzimidazole-5,2-diyl(1S)-1,1-ethanediylimino((1R)-2-oxo-1-phenyl-2,1-ethanediyl)))biscarbamate] | 0.033 nM
22 | COC(=O)N[C@H](C(=O)N1[C@@H]2C[C@@H]2C[C@H]1c1nc2ccc(-c3ccc(-c4ccc5nc([C@@H]6C[C@H]7C[C@H]7N6C(=O)[C@@H](NC(=O)OC)C(C)C)[nH]c5c4)cc3)cc2[nH]1)C(C)C [Example M46, methyl((1S)-1-(((1R,3S,5R)-3-(6-(4-(2-((1R,3S,5R)-2-((2S)-2-((methoxycarbonyl)amino)-3-methylbutanoyl)-2-azabicyclo[3.1.0]hex-3-yl)-1H-benzimidazol-6-yl)phenyl)-1H-benzimidazol-2-yl)-2-azabicyclo[3.1.0]hex-2-yl)carbonyl)-2-methylpropyl)carbamate] | 0.006 nM
23 | O=C(C1CC1)N1CCC[C@H]1c1nc2ccc(CCc3ccc4nc([C@@H]5CCCN5C(=O)C5CC5)[nH]c4c3)cc2[nH]1 [Example M41, 2-((2S)-1-(cyclopropylcarbonyl)-2-pyrrolidinyl)-5-(2-(2-((2S)-1-(cyclopropylcarbonyl)-2-pyrrolidinyl)-1H-benzimidazol-6-yl)ethyl)-1H-benzimidazole] | 460 nM
24 | O=C(c1cccs1)N1CCC[C@H]1c1nc2cc(C#Cc3ccc4[nH]c([C@@H]5CCCN5C(=O)c5cccs5)nc4c3)ccc2[nH]1 [Example M10, 5,5′-(1,2-ethynediyl)bis(2-((2S)-1-(2-thienylcarbonyl)-2-pyrrolidinyl)-1H-benzimidazole)] | 10 nM
